These results are taken from US6825166B2 (priority 2001, dated 2004).

What all share (type): cell-based
Assay [1] has as its system KB (human epidermoid carcinoma in the mouth). Briefly: Cytotoxicity (sulforhodamine B growth assay), Protocol A, KB cells. To be noted: for effect on cell growth (optical density versus time): 62.5-250 μg/ml added on day of plating, replenished every 3 days. Here is the method:
(§1) The cell lines selected were KB (human epidermoid carcinoma in the mouth, ATCC #CCL-17), Lu-1 (human lung cancer cell lines, obtained from the Department of Surgical Oncology, University of Illinois, College of Medicine), and hTERT (telomerase-immortalized normal epithelial cell line, Clontech #C4000-1). Various doses of the compounds were evaluated under two treatment protocols. In Protocol A, cultures of each of the KB, Lu and hTERT cells were treated with various doses of the three conjugate compounds from the day of culture onward. In Protocol B, cultures of each of the KB, Lu and hTERT cells were grown to confluence (9 days), and then treated with various doses of the Transferrin-7-paclitaxel conjugate for the duration of the experiment.
(§2) KB was cultured in DMEM (GIBCO) supplemented with 10% fetal bovine serum (FBS), 100 units/ml penicillin G, 100 μg/ml streptomycin sulfate, 0.25 μg/ml amphotericin B (Fungizone) (PSF) (GIBCO) and 1% non-essential amino acids (NAA) (Sigma). Lu was maintained in MEME (GIBCO) supplemented with 10% FBS, PSF, and 1% NAA. hTERT-RPE1 was maintained in DMEM/F-12 (GIBCO) supplemented with 10% FBS+PSF. All cell lines were cultured at 37° C. in 100% humidity with a 5% CO2 atmosphere in air.
(§3) The overall procedures were those as described by Skehan et al., New calorimetric cytotoxicity assay for anticancer-drug screening, J. Natl. Cancer Inst. 82:1107-1112, 1990, and Likhitwitayawuid et al., Cytotoxic and antimalarial bisbenzylisoquinoline alkaloids from Stephania erecta. J. Nat. Prod. 56:30-38, 1993. Cells were typically grown to 60-70% confluence, the medium was changed, and the cells were used for test procedures one day later. Test samples were initially dissolved in sterilized PBS. Serial dilutions were performed using PBS as the solvent, and 10 μl were added to the three wells. PBS (10 μl) was added to control groups. After the plates were prepared, cells were removed from the tissue culture flasks by treatment with trypsin, enumerated, and diluted with fresh media. KB (3×10^4 cells/ml), Lu (5×10^4 cell/ml) and hTERT-RPE1 (4×10^4 cells/ml) cells (in 190 μl of media) were added to the 96-well plates. The plates were incubated at 37° C. in 5% CO2, the cells fixed by addition of 100 μl of cold 20% trichloroacetic acid and incubated at 4° C. for 30 min. The plates were washed with tap water (3×) and dried overnight. The fixed cells were stained 30 min by the addition of 100 μl of 0.4% sulforhodamine B (w/v) dissolved in 1% acetic acid. The plates were washed with 1% acetic acid (3×) and allowed to dry. The bound dye was solubilized by the addition of 10 mM unbuffered Tris base, pH 10 (200 μl/well). The plates were placed on a shaker for 5 minutes, and the absorption was determined at 515 nm using an ELISA plate reader. In each case, a zero-day control was performed by adding an equivalent number of cells to several wells of the 96-well plates and incubating at 37° C. for a period of 30 min. The cells were then fixed with tichloroacetic acid and processed as described above.
The first series of studies were conducted with the Transferrin-3-cholesterol conjugate, the Transferrin-rhodamine123 conjugate and the Transferrin-7-paclitaxel conjugate following Protocol A, in which various concentrations of test compounds ranging from 62.5-250 μg/ml were added on the day of plating, and media were replenished every 3 days, maintaining the same concentrations of the test compounds. As shown by plotting optical density versus time, the Transferrin-3-cholesterol conjugate and the Transferrin-rhodamine123 conjugate were not active with any of the cell lines (FIGS. 5, 6, 8, 9, 11, 12).
Therefore, the experiment was repeated with the Transferrin-7-paclitaxel conjugate with lower concentrations.

Assay [2] deals with hTERT (telomerase-immortalized normal epithelial cell line). Briefly: Cytotoxicity (sulforhodamine B growth assay), Protocol A, hTERT cells. To be noted: 62.5-250 μg/ml added on day of plating, replenished every 3 days. Here is the method:
as §1, §2
(§4) The overall procedures were those as described by Skehan et al., New calorimetric cytotoxicity assay for anticancer-drug screening, J. Natl. Cancer Inst. 82:1107-1112, 1990, and Likhitwitayawuid et al., Cytotoxic and antimalarial bisbenzylisoquinoline alkaloids from Stephania erecta. J. Nat. Prod. 56:30-38, 1993. Cells were typically grown to 60-70% confluence, the medium was changed, and the cells were used for test procedures one day later. Test samples were initially dissolved in sterilized PBS. Serial dilutions were performed using PBS as the solvent, and 10 μl were added to the three wells. PBS (10 μl) was added to control groups. […] The plates were placed on a shaker for 5 minutes, and the absorption was determined at 515 nm using an ELISA plate reader. […]

The subject of assay [3] is Lu-1 (human lung cancer cell lines). Description: Cytotoxicity (sulforhodamine B growth assay), Protocol A, Lu cells. The conditions noted are these: 62.5-250 μg/ml added on day of plating, replenished every 3 days. Here is the method: as §1, §2, §4
The subject of assay [4] is hTERT (telomerase-immortalized normal epithelial cell line). Briefly: Cytotoxicity (sulforhodamine B growth assay), Protocol B (confluent cultures), hTERT cells. To be noted: for effect on cell growth: hTERT cells grown 9 days before treatment. Here is the method:
as §1, §2, §3

The test system of assay [5] is KB (human epidermoid carcinoma in the mouth). Briefly: Cytotoxicity (sulforhodamine B growth assay), Protocol B (confluent cultures), KB cells. The conditions noted are these: KB cells grown 9 days before treatment. Here is the method: as §1, §2, §4
Assay [6] relates to Lu-1 (human lung cancer cell lines). Description: Cytotoxicity (sulforhodamine B growth assay), Protocol B (confluent cultures), Lu cells. To be noted: Lu cells grown 9 days before treatment. Here is the method: as §1, §2, §4

“Transferrin-3-cholesterol conjugate: 3-acyl-pentanal cholesterol linked with Transferrin; non-cytotoxic molecule control conjugate”: the “effect on cell growth (optical density versus time)” value in assay [1], in assay [2] and in assay [3] was “not active” each time.
With “Transferrin-7-paclitaxel conjugate: 7-acyl-pentanal paclitaxel linked to Transferrin through Schiff base; 3 paclitaxel per Transferrin”, the “selectivity: cancer cells (KB and Lu) versus normal cells (hTERT)” value in assay [4] (conclusion from KB, Lu and hTERT results) is “primarily targeting cancer cells (KB and Lu) while not significantly affecting normal cells (hTERT)”. Further, the “effect on cell growth” value in assay [4] (0.5 μg/ml) is given as “Slight increases in cell growth”; in assay [4] (5 μg/ml) it was “Slight increases in cell growth”; in assay [4] (50 μg/ml), “growth was diminished”; in assay [1] (0.5 μg/ml) it was “no effect on growth”; in assay [1] (5 μg/ml), “complete growth inhibition”; in assay [1] (50 μg/ml), “complete growth inhibition”. Besides, the “cell number on day 16” value in assay [4] (hTERT cells, 50 μg/ml, day 16 versus day 9) is recorded as “approximately the same as on day 9”. Further, the “effect on cell number” value in assay [5] (0.5 μg/ml) is given as “cell number paralleled that of the control”; in assay [5] (5 μg/ml) it was “significant reduction in cell number”; in assay [5] (50 μg/ml) it was “significant reduction in cell number”; in assay [6] (50 μg/ml), “significant reduction in cell number”. Moreover, the “effect on cell growth (optical density versus time)” value in assay [1], in assay [2] and in assay [3] was “complete inhibition of cell growth” each time. The figures for the “effect on cell number (reduction relative to that at 50 μg/ml)” value in assay [6] (0.5 μg/ml) and in assay [6] (5 μg/ml) were “negated” and “diminished”, respectively.
For the substance “Transferrin-rhodamine123 conjugate: rhodamine123 linked to Transferrin using glutaraldehyde as a linker between free amino groups”, the “effect on cell growth (optical density versus time)” value in assay [1], in assay [2] and in assay [3] was “not active” in each case.
